These results are taken from patent US6416783B1, “Aspartic and malic acid inhibition of ss-glucuronidase” (Wisconsin Alumni Research Foundation, priority 1999, dated 2002).

Where “and” joins values, the source holds several entries; their conditions need not be identical. Equal entries are not always repeated. Where two headings read alike, the source gives them in different places.

Test [1] deals with T1, β-glucuronidase (Homo sapiens, UniProt P08236).
T1 construct: We used human breast milk collected and pooled from a newborn nursery as the β-glucuronidase source; from tissue
T1 sequence (P08236 23-651): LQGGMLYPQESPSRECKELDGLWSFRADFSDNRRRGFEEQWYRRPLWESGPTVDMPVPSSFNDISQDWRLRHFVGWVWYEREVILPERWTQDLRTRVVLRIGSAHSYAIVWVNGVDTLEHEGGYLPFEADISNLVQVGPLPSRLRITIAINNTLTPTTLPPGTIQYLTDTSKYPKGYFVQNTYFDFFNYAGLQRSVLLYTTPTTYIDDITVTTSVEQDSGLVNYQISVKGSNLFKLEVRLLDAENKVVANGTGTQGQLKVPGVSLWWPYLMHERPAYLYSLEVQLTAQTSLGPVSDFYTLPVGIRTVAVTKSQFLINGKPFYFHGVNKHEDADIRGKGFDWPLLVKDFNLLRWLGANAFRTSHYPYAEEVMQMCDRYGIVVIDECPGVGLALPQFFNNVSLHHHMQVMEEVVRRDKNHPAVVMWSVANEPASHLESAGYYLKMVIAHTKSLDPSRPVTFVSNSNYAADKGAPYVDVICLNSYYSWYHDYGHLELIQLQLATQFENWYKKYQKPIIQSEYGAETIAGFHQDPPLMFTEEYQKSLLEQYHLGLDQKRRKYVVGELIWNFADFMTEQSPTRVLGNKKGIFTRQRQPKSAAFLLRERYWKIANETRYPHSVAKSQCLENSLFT
The experiment in a line: Standard Test: β-glucuronidase activity of human breast milk with MUG substrate (fluorescence). The settings on record: for remaining activity at 100 µM / remaining activity at 1000 µM / remaining activity at 10000 µM / β-glucuronidase activity, % (of control) / X (mean activity) / β-glucuronidase activity (row unlabelled): Example 4; for β-glucuronidase activity, % (of control): 0.1, 1, 10 mM; for X (mean activity) / mean (X̄) activity: mean of 3; for X (mean activity) / β-glucuronidase activity (row unlabelled): in pmol/tube/h; for β-glucuronidase activity (row unlabelled) / Activity (pmole/tube/hr): single replicates. Format: biochemical. On the procedure:
We first developed a standard assay procedure (the “Standard Test”). We used human breast milk collected and pooled from a newborn nursery as the β-glucuronidase source. The samples were stored at −20° C. The milk was thawed and diluted 10× with 0.2 M sodium acetate/glacial acetic acid (NaAC) buffer pH 4.5 just prior to being used. A 4.0 mM stock solution of 4-methylumbelliferyl β-D-glucuronide (MUG, Sigma M-9130 lot#75H3777) was prepared in 0.2 M NaAC buffer pH 4.5.
Triplicate test and blank tubes contained a reaction mixture consisting of 50 μL diluted breast milk and 50 μL of an inhibitor solution diluted with 0.2 M NaAC buffer pH 4.5. Controls were prepared that contained only 50 μL diluted breast milk and 50 μL 0.2 M NaAC buffer pH 4.5. The assay was started by adding 25 μl of the MUG (4.0 mM, 0.800 mM final concentration) to the test sample to start the reaction. The final volume of the reaction was 125 μL. Both blank and test samples were vortexed and incubated at 37° C. for 1 hour (or for shorter times if indicated).
The reaction was quenched in both the test and blank samples with 3.0 ml of glycine-carbonate (320 mM: 200 mM) buffer pH 10.0. The blank samples had 25 μl of the MUG (4.0 mM, 0.800 mM final) added to them and all tubes were vortexed.
The resulting fluorescence was read using a Perkin Elmer LS5-B fluorescence spectrophotometer (360 nm excitation, 445 nm emission, autorange scale). The amount of 4-methylumbelliferone (4-MU) released by the β-glucuronidase was calculated using a 4-MU quadratic standard curve and the Mathplot software. The velocity was calculated as pmoles of 4-MU formed per hour per ml undiluted breast milk.
We diluted pooled breast milk 20× with 0.2 M NaAC buffer pH 4.5. We diluted 2.2% w/v solution of Amicase (Sigma Cat. #A2427—a mixture of free amino acids with virtually no unhydrolyzed peptides, only minimal inorganic components are present, total nitrogen ˜12.8%, amino nitrogen ˜9.8%) with buffer 5×. We then incubated 50 μl milk with 50 μl buffer and Amicase. We then added 25 μl MUG to start the reaction. We then quenched with Na-carbonate buffer pH 10.0 and read fluorescence at 360 nm ex 445 nm em. Autorange scale. The mixture of amino acids was compared to controls and Nutramigen® as follows:
We then studied the effect of specific amino acid mixtures on β-glucuronidase activity. We diluted pooled breast milk 10× with 0.2 M NaAC buffer pH 4.5 and diluted 50×stock essential amino acid solution (Sigma Cat #M7020=L-arginine.HCl 6.32 g/L, L-cystine 1.2 g/L, L-histidine.HCl.H20 2.1 g/L, L-isoleucine 2.625 g/L, L-leucine 2.62 g/L, L-lyscine.HCl 3.625 g/L, L-methionine 0.755 g/L, L-phenylalanine 1.65 g/L, L-threonine 2.38 g/L, L-tryptophane 0.51 g/L, L-tyrosine 1.8 g/L, L-valine 2.34 g/L).
We also used a non-essential AA solution=Sigma Cat #M7145=L-alanine HCl 0.89 g/L, L-asparagine.H20 1.50 g/L, L-aspartic acid 1.33 g/L, L-glutamic acid 1.47 g/L, glycine 0.75 g/L, L-proline 1.15 g/L, L-serine 1.05 g/L.
We 5×diluted 100×stock essential AA solution. We incubated 50 μl diluted milk with 50 μl buffer (control), or the essential AA solution, or the non-essential AA solution, or Nutramigen® RTU, added 25 μl MUG to start the reaction, quenched with Na-carbonate buffer, and read fluorescence (360 nm excitation: 445 nm emission). The results are as follows:
We then analyzed inhibitory effect of each of the seven amino acids in the non-essential amino acid mixture. We diluted pooled breast milk 10× with 0.2 M NaAC buffer pH 4.5, and diluted Nutramigen® RTU (N) and Nutramigen® lipid-free supernatant (LFS) 5 fold with 0.2 M NaAC buffer pH 4.5.
We prepared stock solutions of each of the non-essential amino acids L-alanine (Ala), L-asparagine (Asn), L-aspartic acid (Asp), L-glutamic acid (Glu), glycine (Gly), L-proline (Pro), and L-Serine (Ser). All solutions were at pH 4.5. The final concentration of each amino acid in the assay was the same as when the amino acids were analyzed as a mixture. […]

The conditions of test [2]: cited from earlier work.
The mark [3] stands for this setting: 0.1 mM, read-out: % (activity relative to control).
Where [4] appears, read: 1 mM, read-out: % (activity relative to control).
Setting [5] is: 10 mM, read-out: % (activity relative to control).

Turning to `CC(=O)N[C@H]1C(O)O[C@H](CO)[C@H](O)[C@@H]1O` (stereo partly drawn) [NAG, N-acetyl-D-galactosamine], the remaining activity at 100 µM in test [1] (setting [3]) came out at 98.4%. Besides, the remaining activity at 1000 µM in test [1] (setting [4]) is 99.3%. In addition, the remaining activity at 10000 µM in test [1] (setting [5]) worked out at 100%. In addition, in test [1], the “β-glucuronidase activity, % (of control)” value was 98-100%. Moreover, the results for the “X (mean activity)” value in test [1] (0.1 mM), in test [1] (1 mM) and in test [1] (10 mM) were 814.1, 821.6 and 827.9, respectively. Further, the “β-glucuronidase activity (row unlabelled)” value in test [1] (0.1 mM) was 811.8 and 817.0 and 813.4; in test [1] (1 mM), 805.6 and 850.0 and 809.3; in test [1] (10 mM), 835.1 and 824.1 and 824.3.

Turning to `CC(=O)N[C@H]1[C@H]([C@H](O)[C@H](O)CO)OC(O)(C(=O)O)C[C@@H]1O` (some centres unmarked) [NAN, N-acetylneuraminic acid], the remaining activity at 100 µM in test [1] (setting [3]) came out at 99.3%. In addition, the remaining activity at 1000 µM in test [1] (setting [4]) is 99.2%. Moreover, the remaining activity at 10000 µM in test [1] (setting [5]) was determined as 110%. Besides, the “β-glucuronidase activity, % (of control)” value in test [1] is 99-100%. Also, the “X (mean activity)” value is 821.9 in test [1] (0.1 mM), 820.5 in test [1] (1 mM) and 905.7 in test [1] (10 mM). For the same compound, the “β-glucuronidase activity (row unlabelled)” value in test [1] (0.1 mM) was 806.4 and 848.2 and 810.9; in test [1] (1 mM), 829.9 and 827.6 and 803.9; in test [1] (10 mM) it was 897.8 and 912.1 and 907.2.

For `O=C(O)[C@@H]1CCCN1` [Pro, L-proline], the remaining activity at 46 µg/mL in test [1] (Example 3, 46.0 μg/ml, read-out: % (activity relative to control)) amounted to 99.3%. Moreover, in test [1] (Example 3, 46.0 μg/ml), the “mean (X̄) activity” value is recorded as 669.6 pmole/tube/hr; the “Activity (pmole/tube/hr)” value is 666.1 pmole/tube/hr and 679.7 pmole/tube/hr and 662.9 pmole/tube/hr.

As to `N[C@@H](CO)C(=O)O` [Ser, L-Serine], the remaining activity at 42.2 µg/mL in test [1] (Example 3, 42.2 μg/ml, read-out: % (activity relative to control)) is 99.3%. Further, in test [1] (Example 3, 42.2 μg/ml), the “mean (X̄) activity” value was 669.2 pmole/tube/hr; the “Activity (pmole/tube/hr)” value is 677.7 pmole/tube/hr and 670.6 pmole/tube/hr and 659.2 pmole/tube/hr.

As to `N[C@@H](CC(=O)O)C(=O)O` [aspartic acid], the serum bilirubin level result in test [2] (a premature infant with neonatal hyperbilirubinemia, Kohno et al. 1963) was “lowered”; in test [2] (some cases of hyperbilirubinemia, Saito et al. 1964), “decreased”. Also, the “effect on serum bilirubin concentrations” value in test [2] (double-blind, pre-term formula-fed infants, given each of the first six days of life, Gray et al. 1971) is “no effect”.
